Measured values reported in US8592405B2, “Synergistic antimicrobial composition” (Dow Global Technologies LLC, priority 2009, dated 2013).
Several values for one entry are separate records, joined by “and”; a condition that tells them apart may be missing. Identical values can stand only once.

Columns and labels:
Format in all cases: cell-based
[1] = system: Trentepohlia aurea + Trentepohlia odorata (Ta + To); experiment: Algal efficacy testing, modified ASTM 5589 (12-well, dry paint film); conditions: three weeks; for % inhibition: at the Total conc; for Total conc, ppm: total biocide in paint taken as minimum inhibitory concentration
Method: (§1) Samples of white acrylic latex paint free of biocides were prepared in 50 ml aliquots. Each biocide was post added to give the necessary active ingredient concentration in the paint. The total biocides concentrations tested were 750, 1500, 2500 and 5000 ppm. After biocides addition, each sample was hand mixed for a minimum of 30 sec, followed by a 3 min run on the paint shaker (RED DEVIL). Each of the paint samples as well as a control sample (containing no biocide) were used to prepare films on black plastic-vinyl chloride/acetate copolymer panels (LENETA, Mahwah, N.J.) using a 3 mil bird bar applicator. The panels were thoroughly dried for 5 days avoiding direct exposure to sunlight. Square discs (15 mm^2) were cut out from each panel and were used as the substrate for fungal and algal efficacy tests. This sample size allowed for an agar border when the sample disc was placed into the well of the test plate.
(§2) The appropriate media (BOLD'S 3N for Chlorophytes, BG-11 for Cyanobacteria, and PDA for fungi) were used to support microbial growth. The test plates were maintained at room temp (25° C.-26° C.), in a cycled light-dark environment, for 3 weeks for algae. Plates for fungal challenge tests were maintained at 30C for three weeks. At the end of incubation period the samples were scored for percent area covered by visible microbial growth.
(§3) ASTM 5589 is a standard accelerated test method for determining resistance of various coatings (including paints) to algal defacement. To accommodate for high-throughput screening, this method was scaled down from petri plates to 12-well plates. A single coupon was placed with a pair of sterile forceps at the center of the agar plug (on top) with the painted surface facing upwards. Each well was inoculated with 150 μl of organism (1×10^8 cfu/ml) making sure that the whole surface (paint film as well as the agar surrounding it) was evenly covered. The plates were incubated at room temp (25° C.-26° C.) with cyclic exposure to light (OTT-Lite model #OTL4012P, 40 Watt, 26 KLumen) and dark phases, for a period of three weeks. The total area covered was evaluated at the end of each week according to percent area covered in 5% increments. While rating the plates, notations were made for zones of inhibition.
(§4) The SI is calculated based on F. C. Kull et.

Oscillatoria sp. (Os) = experiment: as above; conditions: three weeks; for % inhibition: at the Total conc; for Total conc, ppm: total biocide in paint taken as minimum inhibitory concentration
Method: as §1, §2, §3, §4

[2] = system: Calothrix parientina (Cp); experiment: as above; conditions: three weeks; for % inhibition: at the Total conc; for Total conc, ppm: total biocide in paint taken as minimum inhibitory concentration
Method: as §1, §2, §3, §4

Nostoc commune (Nc) = experiment: as above; conditions: three weeks; for % inhibition: at the Total conc; for Total conc, ppm: total biocide in paint taken as minimum inhibitory concentration
Method: as §1, §2, §3, §4

[3] = system: Chlorella sp. + Chlorella kessleri (Cs + Ck); experiment: as above; conditions: three weeks; for % inhibition: at the Total conc; for Total conc, ppm: total biocide in paint taken as minimum inhibitory concentration
Method: as §1, §2, §3, §4

[4] = system: Aa + Ap (Alternaria alternata + Aureobasidium pullulans); experiment: Fungal efficacy testing, modified ASTM 5590 (6-well, mixed inoculum, Example 4); conditions: four weeks; for Total conc, ppm: Aa + Ap mixed inoculum, NE = no end point at the concentration tested; for % inhibition: Aa + Ap, at the Total conc
Method: [The source words this procedure for another target and reports this target under the same test.] as §4
A single or blend of biocides was post added into white acrylic latex paint free of biocides to give a maximum total active ingredient/s concentration tested. This paint was then diluted with a biocide free acrylic latex paint at concentrations range of 75 to 12.5% w/w to give desired concentrations for the testing. Depending on the type of biocide blends tested, the total biocides concentrations varies from 200 to 5000 ppm. After biocides addition or dilution each sample was hand mixed for at least a minute until uniformity is achieved. Each of the paint samples as well as a control sample (containing no biocide) were used to prepare films on black plastic-vinyl chloride/acetate copolymer panels (LENETA, Mahwah, N.J.) using a 3 mil bird bar applicator. The panels were thoroughly dried for at least 2 days avoiding direct exposure to sunlight. Square discs (0.5 inch^2, 13 mm^2) were cut out from each panel and were used as the substrate for fungal and algal efficacy tests. This sample size allowed for an agar border when the sample disc was placed into the well of the test plate. Each sample was tested in duplicate
as §2, with “for four” for “for 3”, “at 30 C” for “at 30C”, “for four” for “for three”, “of the” for “of”
(§5) ASTM 5590 is a standard accelerated test method for determining resistance of various coatings (including paints) to fungal defacement. To accommodate for high-throughput screening, this method was scaled down from petri plates to 6-well plates. To set up the test, an agar plug was placed at the bottom of each well of the sterile 6-well plate. A single coupon was placed with a pair of sterile forceps at the center of the agar plug (on top) with the painted surface facing upwards. Fungal inoculums were prepared by mixing equal concentrations (1×10^6 cfu/ml) and equal volumes (depending on number of samples to be tested) of like growing organisms. Cladosporium herbarum was mixed with Aureobasidium pullulans. Aspergillus niger was mixed with Penicillium funiculosum. Alternaria alternata was mixed with Trichoderma viride. Each well was inoculated with 400 μl of organism mixture (1×10^6 cfu/ml) making sure that the whole surface (paint film as well as the agar surrounding it) was evenly covered. The plates were incubated at 30° C. in presence of moisture, for a period of four weeks. The total percent area covered was evaluated and recorded at the end of each week after the 2nd week and recorded in increments of 5%.

[5] = system: Cladosporium herbarum (Ch); experiment: Fungal efficacy testing, modified ASTM 5590 (12-well, dry paint film); conditions: three weeks; for Total conc, ppm: total biocide in paint taken as minimum inhibitory concentration, 30 C; for % inhibition: at the Total conc
Method: as §1, §2
as §5, with “12-well” for “6-well”, “upwards.” for “upwards. Fungal inoculums were prepared by mixing equal concentrations (1×10^6 cfu/ml) and equal volumes (depending on number of samples to be tested) of like growing organisms. Cladosporium herbarum was mixed with Aureobasidium pullulans. Aspergillus niger was mixed with Penicillium funiculosum. Alternaria alternata was mixed with Trichoderma viride.”, “150” for “400”, “organism” for “organism mixture”, “three” for “four”
as §4

[6] = system: Aureobasidium pullulans (Ap); experiment: as above; conditions: three weeks; for Total conc, ppm: total biocide in paint taken as minimum inhibitory concentration, 30 C; for % inhibition: at the Total conc
Method: as §1, §2
as §5, with “12-well” for “6-well”, “upwards.” for “upwards. Fungal inoculums were prepared by mixing equal concentrations (1×10^6 cfu/ml) and equal volumes (depending on number of samples to be tested) of like growing organisms. Cladosporium herbarum was mixed with Aureobasidium pullulans. Aspergillus niger was mixed with Penicillium funiculosum. Alternaria alternata was mixed with Trichoderma viride.”, “150” for “400”, “organism” for “organism mixture”, “three” for “four”
as §4

[7] = system: Alternaria alternata (Aa); experiment: as above; conditions: three weeks; for Total conc, ppm: total biocide in paint taken as minimum inhibitory concentration, 30 C; for % inhibition: at the Total conc
Method: as §1, §2
as §5, with “12-well” for “6-well”, “upwards.” for “upwards. Fungal inoculums were prepared by mixing equal concentrations (1×10^6 cfu/ml) and equal volumes (depending on number of samples to be tested) of like growing organisms. Cladosporium herbarum was mixed with Aureobasidium pullulans. Aspergillus niger was mixed with Penicillium funiculosum. Alternaria alternata was mixed with Trichoderma viride.”, “150” for “400”, “organism” for “organism mixture”, “three” for “four”
as §4

[8] = system: Stachybotris chartarum (Sc); experiment: as above; conditions: three weeks; for % inhibition: at the Total conc; for Total conc, ppm: total biocide in paint taken as minimum inhibitory concentration, 30 C
Method: as §1, §2
as §5, with “12-well” for “6-well”, “upwards.” for “upwards. Fungal inoculums were prepared by mixing equal concentrations (1×10^6 cfu/ml) and equal volumes (depending on number of samples to be tested) of like growing organisms. Cladosporium herbarum was mixed with Aureobasidium pullulans. Aspergillus niger was mixed with Penicillium funiculosum. Alternaria alternata was mixed with Trichoderma viride.”, “150” for “400”, “organism” for “organism mixture”, “three” for “four”
as §4

[9] = system: Penicillium funiculosum (Pf); experiment: as above; conditions: three weeks; for Total conc, ppm: total biocide in paint taken as minimum inhibitory concentration, 30 C; for % inhibition: at the Total conc
Method: as §1, §2
as §5, with “12-well” for “6-well”, “upwards.” for “upwards. Fungal inoculums were prepared by mixing equal concentrations (1×10^6 cfu/ml) and equal volumes (depending on number of samples to be tested) of like growing organisms. Cladosporium herbarum was mixed with Aureobasidium pullulans. Aspergillus niger was mixed with Penicillium funiculosum. Alternaria alternata was mixed with Trichoderma viride.”, “150” for “400”, “organism” for “organism mixture”, “three” for “four”
as §4

Compound | % inhibition [1] | Total conc, ppm [1] | % inhibition (Oscillatoria sp. (Os)) | % inhibition [2] | Total conc, ppm [2] | % inhibition (Nostoc commune (Nc)) | Total conc, ppm (Nostoc commune (Nc)) | % inhibition [3] | Total conc, ppm [4] | % inhibition [4] | Total conc, ppm [5] | Total conc, ppm [6] | Total conc, ppm [7] | % inhibition [8] | Total conc, ppm [8] | Total conc, ppm [9] | Total conc, ppm (Oscillatoria sp. (Os)) | Total conc, ppm [3] | % inhibition [5] | % inhibition [6] | also measured
CN(C)C(=O)Nc1cccc(C(F)(F)F)c1 [Fluometuron, 1,1-dimethyl-3-(α,α,α-trifluoro-m-tolyl)urea] | 95% and 82.5% and 62.5% | 750 ppm and 1500 ppm | 95% and 62.5% and 82.5% | 100% and 95% and 90% | 750 ppm | 100% and 90% and 85% | 750 ppm | 100% and 90.00% and 80% | 5000 ppm | 0% | 2500 ppm and 5000 ppm | 2500 ppm and 5000 ppm | 2500 ppm and 5000 ppm | 65% | 5000 ppm | 2500 ppm and 5000 ppm | – | – | – | – | –
CCCCCCCCn1sc(Cl)c(Cl)c1=O [DCOIT, 4,5-dichloro-2-n-octyl-4-isothiazolin-3-one] | 72.5% | 1500 ppm | 80% | 75% | 1500 ppm | 82.5% | 750 ppm | 70% | 862.5 ppm | 100% | 5000 ppm | 2500 ppm | 5000 ppm | 32.5% | 5000 ppm | 2500 ppm | 750 ppm | 1500 ppm | 67.5% | 77.5% | % inhibition [7]: 87.5%; % inhibition [9]: 82.5%
Cc1ccc(S(=O)(=O)C(I)I)cc1 [DIMTS, diiodomethyl-p-tolylsulfone] | 62.5% | 2500 ppm | 80% | 85% | 1500 ppm | 80% | 5000 ppm | 70% | 1250 ppm | 100% | 750 ppm | 2500 ppm | 2500 ppm | 50% | 750 ppm | 1500 ppm | 1500 ppm | 2500 ppm | 72.5% | 77.5% | % inhibition [7]: 77.5%; % inhibition [9]: 82.5%
